Test results from patent publication US7109202B2, “Aminothaizoles and their use as adenosine receptor antagonists” (Novartis AG, priority 2000, dated 2006).
pKi: −log10 of the molar value. Where two headings read alike, the source gives them in different places.

Experiments:
[1] = target: T1, human adenosine A2b receptor (Homo sapiens, UniProt P29275); assay: Adenosine A2b receptor reporter gene assay (luciferase, CHO-A2b cells); format: cell-based; conditions: CHO cells transfected with human A2b receptor and pCRE-LUCI; NECA as agonist; KB from shift of the curve at 100 nM or 1 μM antagonist
T1 construct: expressed in transfected cells; host or cells: CHO cells, co-transfected with the pCRE-LUCI reporter plasmid
T1 sequence (P29275 1-332): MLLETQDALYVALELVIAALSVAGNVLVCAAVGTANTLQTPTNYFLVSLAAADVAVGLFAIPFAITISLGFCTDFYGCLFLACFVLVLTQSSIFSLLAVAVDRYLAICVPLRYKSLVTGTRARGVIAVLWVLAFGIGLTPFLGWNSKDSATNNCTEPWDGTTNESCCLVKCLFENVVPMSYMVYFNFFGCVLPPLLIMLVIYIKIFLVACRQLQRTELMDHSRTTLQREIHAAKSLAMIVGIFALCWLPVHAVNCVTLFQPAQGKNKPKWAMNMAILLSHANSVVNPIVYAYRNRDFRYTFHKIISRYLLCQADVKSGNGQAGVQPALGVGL
Description: Adenosine A2b Receptor Reporter Gene Assay a) Culturing of Chinese Hamster Ovary (CHO) A2b Cell Line
CHO cells transfected with a Luciferase-expressing reporter plasmid (pCRE-LUCI) and with a plasmid carrying the human adenosine A2b receptor structural gene (pA2bRCV) are routinely cultured in Dulbecco's Modified Eagle Medium (DMEM)—supplemented with 10% v/v fetal calf serum (FCS), 2 mM L-glutamine, 0.4 mg/ml L-proline, 1 nM sodium selenite, 0.5 mg/ml Hygromycin B and 1 mg/ml Geneticin—at 37° C., 5% CO2 and 100% humidity. The cells are left to grow to confluence for 4–5 days. The cells obtained are passaged using trypsin/EDTA and split at a ratio of 1 in 5. […]
b) Preparation of Cells for Assay
Prior to the assay, the CHO-A2b cells are plated onto white 96-well View Plate tissue culture plates (Packard) at a density of 50,000 cells per well in […] of DMEM, and the plates are incubated at 37° C., 5% CO2 and 100% humidity. […]
c) Preparation of Reference and Test Compounds
10 mM solutions of the reference compound, Xanthine Amine Cogener (XAC), and the test compound in dimethyl sulfoxide (DMSO) are prepared. The solutions are further diluted with DMSO to 100 μM, then diluted to 10 μM, and finally to 250 nM or 2.5 μM with Assay Buffer (DMEM Phenol Red-free tissue culture media supplemented with 10 μM Rolipram and 10 U/ml adenosine deaminase (ADA). The resulting solutions (40 μl) are added to the cells in the appropriate wells, the final concentration per well being 100 nM or 1 μM, and the plates are incubated at 37° C., 5% CO2 and 100% humidity. […]
d) Luciferase Reporter Gene Assay
5′-N-ethylcarboxamidoadenosine (NECA), an adenosine A2b agonist, is prepared as a […] solution in DMSO and then diluted to 100 μM with Assay Buffer. This solution is serially diluted in Assay Buffer to give a series of 10 NECA concentrations from 100 to 0.01 μM. 10 μl portions of the resulting NECA solutions are added to the mixtures of CHO-A2b cells and reference or test compound solutions prepared as described above (preincubated for 30 minutes), final concentrations ranging from 10 to 0.0005 μM per well. The cells are incubated at 37° C., 5% CO2 and 100% humidity for 3 hours to induce release of cAMP, which then binds to cAMP binding protein (CBP) and the resulting complex interacts with the reporter plasmid to express Luciferase. 100 μl of Steady-Glo, a Luciferase assay substrate from Promega, is added to all wells to lyse the cells and generate luminescence in proportion to the amount of Lucifrease produced. The plates are left for a minimum of 5 minutes before being read on the luminescence program of a Topcount NXT microplate scintillation counter (ex Packard). Concentration—response curves are plotted from the luminescence data using Activitybase software and KB values for the antagonists under test are calculated from the shifts of the curve at a particular concentration (KB=[antagonist]/(concentration ratio−1)

adenosine A3 receptor = target: T2, adenosine A3 receptor (Homo sapiens, UniProt P0DMS8)
T2 sequence (P0DMS8 1-318): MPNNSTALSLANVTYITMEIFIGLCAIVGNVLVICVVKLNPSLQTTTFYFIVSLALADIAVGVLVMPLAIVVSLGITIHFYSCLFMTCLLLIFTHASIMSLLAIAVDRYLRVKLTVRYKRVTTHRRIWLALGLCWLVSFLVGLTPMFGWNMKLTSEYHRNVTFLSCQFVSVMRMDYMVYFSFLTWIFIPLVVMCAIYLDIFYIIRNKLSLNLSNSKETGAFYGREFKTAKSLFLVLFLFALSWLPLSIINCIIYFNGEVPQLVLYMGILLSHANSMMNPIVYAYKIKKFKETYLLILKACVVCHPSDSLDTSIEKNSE

[2] = read-out: KI value in adenosine A3 receptor assay, assay as described in WO 99/64418

Molecule: COc1ccc(C(=O)Nc2nc(-c3cccc(C#N)c3)c(-n3cncn3)s2)cc1 [Example 12, N-[4-(3-Cyano-phenyl)-5-[1,2,4]triazol-1-yl-thiazol-2-yl]-4-methoxy-benzamide]
- Kb [1]: 0.031 µM
- melting point: 292 to 294 °C

Molecule: Cc1cccc(Nc2nc(-c3cccc(C#N)c3)c(-n3cncn3)s2)n1 [Example 15, 3-[2-(6-Methyl-pyridin-2-ylamino)-5-[1,2,4]triazol-1-yl-thiazol-4-yl]-benzonitrile]
- Kb [1]: 0.02 µM

Molecule: N#Cc1cccc(-c2nc(Nc3cnccn3)sc2-n2cncn2)c1 [Example 27, (3-[2-(Pyrazin-2-ylamino)-5-[1,2,4]triazol-1-yl-thiazol-4-yl]-benzonitrile)]
- pKi (adenosine A3 receptor; [2]): 7.80
- Kb [1]: 0.01 µM

Molecule: Cn1cccc1C(=O)Nc1nc(-c2cccc(C#N)c2)c(-n2cncn2)s1 [Example 36, 1-Methyl-1H-pyrrole-2-carboxylic Acid [4-(3-cyano-phenyl)-5-[1,2,4]triazol-1-yl-thiazol-2-yl]-amide]
- Kb [1]: 0.017 µM
- melting point: 245 to 247 °C

Molecule: COCCOc1cncc(Nc2nc(-c3cccc(C#N)c3)c(-n3cncn3)s2)n1 [Example 38]
- pKi (adenosine A3 receptor): 8.40
- Kb [1]: 0.012 µM

Molecule: (3-[5-(2-Methyl-imidazol-1-yl)-2-(pyrazin-2-ylamino)-triazol-4-yl]-benzonitrile) [Example 35]
- pKi (adenosine A3 receptor; [2]): 8.00
- Kb [1]: 0.004 µM
